# Measurements reported in patent US10144742B2 (Millennium Pharmaceuticals, Inc., priority 2014, dated 2018).
# Tests used:
# hNAMPT protein = hNAMPT protein (Homo sapiens (Human), UniProt P43490); experiment: NAMPT enzyme assay (TR-FRET/HTRF, BodiPY ligand, anti 6His-Tb); format: binding; conditions: for IC50: NAMPT IC50 range class, read-out: IC50; for inhibition at 1 µM: compound concentration 1 μM, read-out: Percent Inhibition
# Summary of the method: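 Compound or DMSO was incubated for 1 h at room temperature, protected from light, with BodiPY ligand and hNAMPT labelled by terbium anti-6His antibody. The 520 nm to 486 nm emission ratio after 320 nm excitation gave inhibition versus vehicle, from which concentration-response curves yielded IC50.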
# PC3 cells = experiment: PC3 growth inhibition (Cell-titer glo, 72 hours); format: cell-based; conditions: Homo sapiens, PC-3, PC3 cells, 72 hours, Cell-titer glo, read-out: Percent Inhibition (PC3 growth inhibition); for inhibition at 1 µM: compound concentration 1 μM; for inhibition at 1.667 µM: compound concentration 1.667 μM
# Summary of the method: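 Compounds in AIM serum-free medium were applied for 72 h at 37 °C, 5% CO2 to PC3 cells plated overnight from RPMI1640 culture. Luminescence after 10 min CellTiter-Glo, normalised to DMSO, gave % viability at 1 μM or 1.667 μM, or GI50/LD50.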
# Sequence of hNAMPT protein (P43490 whole entry): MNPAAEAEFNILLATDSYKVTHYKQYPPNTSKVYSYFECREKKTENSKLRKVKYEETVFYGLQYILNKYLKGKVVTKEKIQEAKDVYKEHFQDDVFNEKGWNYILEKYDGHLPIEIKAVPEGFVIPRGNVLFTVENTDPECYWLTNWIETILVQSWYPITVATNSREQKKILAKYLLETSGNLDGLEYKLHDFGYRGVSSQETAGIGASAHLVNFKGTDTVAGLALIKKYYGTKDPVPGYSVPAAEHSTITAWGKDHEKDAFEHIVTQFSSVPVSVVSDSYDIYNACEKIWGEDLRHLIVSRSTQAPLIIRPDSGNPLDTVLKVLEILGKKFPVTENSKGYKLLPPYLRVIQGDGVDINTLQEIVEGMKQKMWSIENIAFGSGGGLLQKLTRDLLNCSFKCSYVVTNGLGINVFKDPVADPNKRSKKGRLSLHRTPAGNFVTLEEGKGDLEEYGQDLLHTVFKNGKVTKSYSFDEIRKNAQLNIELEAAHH
SMILES,IC50 (hNAMPT protein) [nM],inhibition at 1 µM (hNAMPT protein) [%],inhibition at 1 µM (PC3 cells) [%],inhibition at 1.667 µM (PC3 cells) [%]
"O=C(NCCCn1ccnc1)c1ccc2nc(N3CCS(=O)(=O)CC3)c(-c3ccccc3)nc2c1 [Compound I-289, 2-(1,1-dioxidothiomorpholin-4-yl)-N-[3-(1H-imidazol-1-yl)propyl]-3-phenylquinoxaline-6-carboxamide]",1000 to 2000,45,-7,–
"CS(=O)(=O)Nc1cccc(-c2nc3ccc(C(=O)NCCCn4ccnc4)cc3nc2-c2ccccc2)c1 [Compound I-290, N-[3-(1H-imidazol-1-yl)propyl]-2-{3-[(methylsulfonyl)amino]phenyl}-3-phenylquinoxaline-6-carboxamide]",100 to 500,81,-8,–
"COc1cccc(-c2nc3cc(C(=O)NCCc4cccnc4)ccc3nc2N2CCC(N3CCOCC3)CC2)c1 [Compound I-291, 3-(3-Methoxyphenyl)-2-[4-(morpholin-4-yl)piperidin-1-yl]-N-[2-(pyridin-3-yl)ethyl]quinoxaline-6-carboxamide]",< 100,98,–,2
"Cn1cncc1CCNC(=O)c1ccc2nc(N3CCC(O)CC3)c(-c3ccc(F)cc3)nc2c1 [Compound I-292, 3-(4-fluorophenyl)-2-(4-hydroxypiperidin-1-yl)-N-[2-(1-methyl-1H-imidazol-5-yl)ethyl]quinoxaline-6-carboxamide]",< 100,90,–,2
"Cn1cc2c(n1)CN(c1nc3cc(C(=O)NCCCn4ccnc4)ccc3nc1-c1ccccc1)CC2 [Compound I-295, N-[3-(1H-imidazol-1-yl)propyl]-3-(2-methyl-2,4,5,7-tetrahydro-6H-pyrazolo[3,4-c]pyridin-6-yl)-2-phenylquinoxaline-6-carboxamide]",1000 to 2000,49,-6,–
"O=C(NCCCn1ccnc1)c1ccc2nc(N3CCn4ccnc4C3)c(-c3ccccc3)nc2c1 [Compound I-296, 2-(5,6-dihydroimidazo[1,2-a]pyrazin-7(8H)-yl)-N-[3-(1H-imidazol-1-yl)propyl]-3-phenylquinoxaline-6-carboxamide]",500 to 1000,67,-7,–
"O=C(NCCCc1cn[nH]c1)c1ccc2nc(N3CCOCC3)c(-c3ccc(F)cc3)nc2c1 [Compound I-297, 3-(4-Fluorophenyl)-2-(morpholin-4-yl)-N-[3-(1H-pyrazol-4-yl)propyl]quinoxaline-6-carboxamide]",100 to 500,88,–,2
"O=C(NCCCc1ncc[nH]1)c1ccc2nc(N3CCC(O)CC3)c(-c3ccc(Cl)cc3)nc2c1 [Compound I-298, 3-(4-chlorophenyl)-2-(4-hydroxypiperidin-1-yl)-N-[3-(1H-imidazol-2-yl)propyl]quinoxaline-6-carboxamide]",< 100,> 99,–,2
"O=C(NCc1ccc2nccn2c1)c1ccc2nc(-c3ccc(F)cc3)c(-c3ccc(F)cc3)nc2c1 [Compound I-299, 2,3-bis(4-fluorophenyl)-N-(imidazo[1,2-a]pyridin-6-ylmethyl)quinoxaline-6-carboxamide]",100 to 500,76,–,2
"O=C(NCCCc1ncc[nH]1)c1ccc2nc(C3=CCOCC3)c(-c3cccs3)nc2c1 [Compound I-300, 2-(3,6-dihydro-2H-pyran-4-yl)-N-[3-(1H-imidazol-2-yl)propyl]-3-(2-thienyl)quinoxaline-6-carboxamide]",< 100,> 99,–,32
"O=C(NCCCc1c[nH]cn1)c1ccc2nc(N3CCCCC3)c(-c3ccc(F)cc3)nc2c1 [Compound I-301, 3-(4-Fluorophenyl)-N-[3-(1H-imidazol-4-yl)propyl]-2-(piperidin-1-yl)quinoxaline-6-carboxamide]",< 100,99,–,2
"O=C(NCCc1cnc2ccccn12)c1ccc2nc(-c3ccc(F)cc3)c(-c3ccc(F)cc3)nc2c1 [Compound I-302, 2,3-bis(4-fluorophenyl)-N-[2-(imidazo[1,2-a]pyridin-3-yl)ethyl]quinoxaline-6-carboxamide]",500 to 1000,63,87,–
"Cn1ccc2c1CN(C(=O)c1ccc3nc(-c4ccc(F)cc4)c(-c4ccc(F)cc4)nc3c1)CC2 [Compound I-303, [2,3-bis(4-fluorophenyl)quinoxalin-6-yl](1-methyl-1,4,5,7-tetrahydro-6H-pyrrolo[2,3-c]pyridin-6-yl)methanone]",2000 to 10000,15,95,–
"COc1nn(C)c2c1CN(C(=O)c1ccc3nc(-c4ccc(F)cc4)c(-c4ccc(F)cc4)nc3c1)CC2 [Compound I-304, [2,3-bis(4-fluorophenyl)quinoxalin-6-yl](3-methoxy-1-methyl-1,4,6,7-tetrahydro-5H-pyrazolo[4,3-c]pyridin-5-yl)methanone]",2000 to 10000,17,92,–
"O=C(NCCCc1ncc[nH]1)c1ccc2nc(-n3ncc4ccccc43)c(-c3ccc(F)cc3)nc2c1 [Compound I-305, 3-(4-fluorophenyl)-N-[3-(1H-imidazol-2-yl)propyl]-2-(1H-indazol-1-yl)quinoxaline-6-carboxamide]",< 100,93,–,3
"Cc1c(F)cc(-c2nc3cc(C(=O)NCCCc4ncc[nH]4)ccc3nc2-c2ccc(F)cc2)cc1F [Compound I-306, 3-(3,5-difluoro-4-methylphenyl)-2-(4-fluorophenyl)-N-[3-(1H-imidazol-2-yl)propyl]quinoxaline-6-carboxamide]",500 to 1000,60,–,3
"CCc1nc2ccc(C(=O)NCCCc3ncc[nH]3)cc2nc1-c1ccc(F)cc1 [Compound I-307, 2-ethyl-3-(4-fluorophenyl)-N-[3-(1H-imidazol-2-yl)propyl]quinoxaline-6-carboxamide]",100 to 500,73,–,4
"NS(=O)(=O)c1cccc(-c2nc3cc(C(=O)NCCCc4ncc[nH]4)ccc3nc2-c2ccc(F)cc2)c1 [Compound I-308, 2-(4-fluorophenyl)-N-[3-(1H-imidazol-2-yl)propyl]-3-(3-sulfamoylphenyl)quinoxaline-6-carboxamide]",100 to 500,89,–,4
"Cc1cc(-c2nc3cc(C(=O)NCCCc4ncc[nH]4)ccc3nc2-c2ccc(F)cc2)cnc1Cl [Compound I-309, 3-(6-chloro-5-methylpyridin-3-yl)-2-(4-fluorophenyl)-N-[3-(1H-imidazol-2-yl)propyl]quinoxaline-6-carboxamide]",100 to 500,86,–,3
"CC(C)Oc1nc2ccc(C(=O)NCCCc3nnc[nH]3)cc2nc1-c1ccc(F)cc1 [Compound I-310, 3-(4-fluorophenyl)-2-isopropoxy-N-[3-(4H-1,2,4-triazol-3-yl)propyl]quinoxaline-6-carboxamide]",500 to 1000,62,–,4
